Columns and labels:
[1] = system: C57BL/6J male mice; conditions: mouse, in vivo
Method: (§1) Recombinant human GDF15/MIC-1 protein (CHO-derived) was purchased from PeproTech Inc. (Cranbury, USA) and described in Example 1. […] For in vitro studies, solid lyophilized powder of these two drugs were solubilized at the recommended concentrations in sterile water, and separate aliquots were made and frozen until thawing prior to addition to cell cultures. For in vivo studies, all agents were dissolved in […] normal saline according to the required concentrations (doxorubicin, 5 mg/kg; GDF15, 0.5 mg/kg; dexrazoxane, […]), and the final volume of each intraperitoneal injection was 100 μl. The recommended dose ratio of dexrazoxane to doxorubicin was 10 to 1. In the following examples, 5 mg/kg of doxorubicin was used which correspond to 50 mg/kg of dexrazoxane. The FDA recommends that dexrazoxane be injected within 0.5 hour prior to doxorubicin infusion in individuals. This was followed in the same manner when applying to the test animals.
The body weight of each mouse was recorded weekly, before each doxorubicin injection and before sacrifice. At the end of experiment, all mice were euthanized with sodium pentobarbital 100 mg/kg administered intraperitoneally, and the hearts were excised immediately. The tibia of the mice were carefully dissected and its length was measured. […]

[2] = cancer survivors exposed to >250 mg/m2 doxorubicin vs. non-exposed; cited from earlier work
[3] = system: C57BL/6J male mice; test: TUNEL staining of mouse myocardium (cardiomyocyte apoptosis); assay type: in vivo; conditions: pretreatment before doxorubicin
Method: as §1
To induce cardiotoxicity in the mouse, four weekly intraperitoneal injections of doxorubicin at 5 mg/kg were administered. After one dose of doxorubicin at 5-6 mg/kg in a mouse, the level of exposure has been estimated to be similar to that of a human individual being given a standard dose of doxorubicin at approximately 60 mg/m^2. […]

[4] = system: hESC-CMs; test: Mitochondrial membrane potential (TMRE); assay type: cell-based, human
Method: Mitochondrial membrane potential (MMP) as a measure of mitochondrial function and viability was assessed using tetramethylrhodamine ethyl ester (TMRE) (Thermo Fisher Scientific, USA), a cell-permeant cationic fluorescent dye that is readily taken up by viable mitochondria. hESC-CMs seeded at 15,000 cells per well on a 96-well flat-bottom microtiter plate were cultured at 37° C. in a humidified 5% CO2 atmosphere for at least 3 days before MMP measurement. TMRE dye was applied at 50 nM for 20 minutes in B27+/RPMI−1640 media, followed by fluorescence reading at excitation and emission wavelengths of 485 nm and 528 nm, respectively, using the Synergy HTX Multi-Mode microplate reader.

heart weight-to-tibia length ratio [1]	Compound	hazard ratio for developing heart failure [2]	cardiomyocyte death by apoptosis (TUNEL staining) [3]	mitochondrial membrane potential and function (TMRE) ([4]; 300 ng/ml GDF15 pretreatment, hESC-CMs exposed to doxorubicin)	mitochondrial membrane potential compared with dexrazoxane ([4]; hESC-CMs, pretreatment in the presence of Dox)
decrease	COc1cccc2c1C(=O)c1c(O)c3c(c(O)c1C2=O)C[C@@](O)(C(=O)CO)C[C@@H]3OC1C[C@H](N)[C@H](O)[C@H](C)O1.Cl (stereo partly drawn) [Dox, (8S,10S)-10-[(3-Amino-2,3,6-trideoxy-L-lyxohexopyranosyl)oxy]-7,8,9,10-tetrahydro-6,8,11-trihydroxy-8-(hydroxyacetyl)-1-methoxynaphthacene-5,12-dione hydrochloride, reference compound]	8.6	–	–	–
–	GDF15: commercially available recombinant human GDF-15 protein (PeproTech 120-28C), CHO cell-derived, SEQ ID NO: 1	–	reduced extent of cardiomyocyte death by apoptosis	better preserved than at other concentrations	performed similarly to dexrazoxane

Reference: patent publication US12209112B2, “Methods of preventing or treating diseases, conditions, or disorders associated with chemotherapy” (The Chinese University of Hong Kong, priority 2022, dated 2025)
